# Results published in article PMC3351444, “Molecular Evolution of a Peptide GPCR Ligand Driven by Artificial Neural Networks” (PLoS ONE, 2012).
# Like-named read-outs stand apart in the source and are kept apart here. Square brackets hold non-standard residues; d marks the D form. Ends that are not written are not given here. Peptide text beside a SMILES is read from it.
# Experiments:
# human CMKLR1 = molecular target: T1, human CMKLR1 (Homo sapiens, UniProt Q99788); experiment: Ca2+ mobilization (CellLux imaging) agonist assay in HEK293A cells expressing CMKLR1 and Gα15; type: cell-based
# T1 construct: host or cells: HEK293A (Invitrogen), stably expressing human Gα15
# T1 sequence (Q99788 1-373): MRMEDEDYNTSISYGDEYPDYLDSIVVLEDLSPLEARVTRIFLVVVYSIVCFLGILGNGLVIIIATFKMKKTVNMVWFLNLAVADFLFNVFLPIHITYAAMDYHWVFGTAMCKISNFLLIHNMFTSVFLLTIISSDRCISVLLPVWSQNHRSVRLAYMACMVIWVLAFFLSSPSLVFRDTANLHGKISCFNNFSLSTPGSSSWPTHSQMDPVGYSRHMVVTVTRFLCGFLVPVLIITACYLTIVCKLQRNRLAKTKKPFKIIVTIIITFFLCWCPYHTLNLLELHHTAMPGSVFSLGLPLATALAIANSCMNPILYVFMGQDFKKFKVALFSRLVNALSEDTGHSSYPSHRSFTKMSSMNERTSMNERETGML
# Procedure: HEK293A cells (Invitrogen) expressing CMKLR1 and Gα15 were seeded at 5*10^4 cells/well in a poly-D-lysine coated 96-well black well/clear bottom plate (BD Falcon) and cultured overnight. From eighteen to twenty-four hours later, cells were loaded with FLUO4-AM (Invitrogen). Then the cells were washed two times with C1 solution (130 mM NaCl, 5 mM KCl, 10 mM HEPES pH 7.4, 2 mM CaCl2, and 10 mM Glucose). After the final wash, a 100 µL of residual volume remained on the cells. Peptides were dissolved in 10% DMSO to a concentration of 1 mM and were diluted in C1 solution with 0.1 % BSA. They were aliquoted as 2x solutions in 96-well plates and were simultaneously transferred by the robotic system within the imager from the ligand plate to the cell plate. […] Fluorescence data was generated in duplicate and experiments were repeated for at least three times. […] For the calculation of concentration-response curves, signals of two wells receiving the same concentration of test substances were averaged and the fluorescence changes of corresponding buffer C1 wells were subtracted. Signals were normalized to background fluorescence. For the calculation of EC50 values, plots of amplitude versus concentrations were prepared in SigmaPlot 11.
# [1] = In vitro peptide stability in human serum (RP-HPLC); settings: for half-life at 50 µg/mL / half-life: human
# Procedure: The initial time is recorded, and at known time intervals 50 µL of the reaction solution is removed and added to 100 µL of 6% aqueous trichloroacetic acid (TCA) for precipitation of serum proteins. […] The reaction supernatant is then analyzed using RP-HPLC (Agilent 1200 LC System) on a ZORBAX Eclipse XDB-C18, 4.6×150 mm, 5 µm column (Agilent). […] Fluorescence is detected at an excitation wavelength of 280 nm and emission wavelength of 340 nm. Kinetic analysis was carried out by least-squares analysis of the logarithm of the integration peak area versus time.
# [2] = intracellular calcium mobilization, HEK293 cells expressing CMKLR1, mean of three independent experiments ± SD, read-out: activity: EC50 ±SD
# [3] = Ca2+ mobilization, CMKLR1, decimal comma
# [4] = Ca2+ mobilization, CMKLR1, decimal comma, NR where no EC50 is given, read-out: EC50
"half-life at 50 µg/mL ([1]; human serum, 25% (v/v) in RPMI)",max response (human CMKLR1; [3]),EC50 (human CMKLR1; [4]),Compound,further results
–,–,–,YFPGQFAFG-OH [compound 29],"max response (human CMKLR1): 1,01 DF/F0; t1/2 ([1]; metabolic stability in human serum): 13 min"
87 ± 19 min,–,–,CC(C)C[C@H](NC(=O)[C@@H](N)Cc1ccc(O)cc1)C(=O)N1CCC[C@H]1C(=O)N[C@H](CCC(N)=O)C(=O)N[C@@H](CCC(N)=O)C(=O)N[C@@H](Cc1ccc(O)cc1)C(=O)N[C@@H](C)C(=O)N[C@@H](Cc1ccccc1)C(=O)N[C@H](Cc1ccccc1)C(=O)O [YLPqQYAFf] (H-YLP[dQ]QYAF[dF]-OH; N-terminus assumed),EC50 (human CMKLR1; [2]): 4.24 ± 1.87 nM
891 min,"1,51 DF/F0",35.1 nM,C[C@H](NC(=O)[C@H](Cc1ccc(O)cc1)NC(=O)[C@H](CCC(N)=O)NC(=O)CNC(=O)[C@@H]1CCCN1C(=O)[C@@H](Cc1ccc(O)cc1)NC(=O)[C@@H](N)Cc1ccc(O)cc1)C(=O)N[C@@H](Cc1ccccc1)C(=O)N[C@H](CO)C(=O)O [compound 88] (H-Y[dY]PGQYAF[dS]-OH; N-terminus assumed),–
22 ± 2 min,–,–,CC(C)C[C@H](NC(=O)[C@@H](N)Cc1ccc(O)cc1)C(=O)N1CCC[C@H]1C(=O)NCC(=O)N[C@@H](CCC(N)=O)C(=O)N[C@@H](Cc1ccc(O)cc1)C(=O)N[C@@H](C)C(=O)N[C@@H](Cc1ccccc1)C(=O)N[C@H](CO)C(=O)O (H-YLPGQYAF[dS]-OH; N-terminus assumed),–
23 min,"1,81 DF/F0",50 nM,CC(C)[C@H](NC(=O)[C@@H](N)Cc1ccc(O)cc1)C(=O)N1CCC[C@H]1C(=O)NCC(=O)N[C@@H](CCC(N)=O)C(=O)N[C@@H](Cc1ccccc1)C(=O)N[C@@H](C)C(=O)N[C@@H](Cc1ccccc1)C(=O)N[C@H](CO)C(=O)O [compound 90] (H-YVPGQFAF[dS]-OH; N-terminus assumed),–
26 min,"0,98 DF/F0",1.89 nM,YFPGQYAFF-OH [compound 30],–
27 ± 4 min,–,–,YLPGQYAFL-OH,EC50 (human CMKLR1; [2]): 5.75 ± 2.56 nM
75 min,"1,78 DF/F0",11.7 nM,CSCC[C@H](NC(=O)[C@H](N)Cc1ccc(O)cc1)C(=O)N1CCC[C@H]1C(=O)NCC(=O)N[C@@H](CCC(N)=O)C(=O)N[C@@H](Cc1ccc(O)cc1)C(=O)N[C@@H](C)C(=O)N[C@@H](Cc1ccccc1)C(=O)N[C@@H](CO)C(=O)O [compound 85] (H-[dY]MPGQYAFS-OH; N-terminus assumed),–
–,–,–,CC(C)C[C@H](NC(=O)[C@@H](N)Cc1ccc(O)cc1)C(=O)N1CCC[C@H]1C(=O)NCC(=O)N[C@@H](CCC(N)=O)C(=O)N[C@@H](Cc1ccc(O)cc1)C(=O)N[C@@H](C)C(=O)N[C@@H](Cc1ccccc1)C(=O)N[C@H](Cc1ccccc1)C(=O)O (H-YLPGQYAF[dF]-OH),half-life ([1]; serum): 36 ± 4 min
–,–,–,CC(C)C[C@H](NC(=O)[C@H](N)Cc1ccc(O)cc1)C(=O)N1CCC[C@H]1C(=O)NCC(=O)N[C@@H](CCC(N)=O)C(=O)N[C@@H](Cc1ccc(O)cc1)C(=O)N[C@@H](C)C(=O)N[C@@H](Cc1ccccc1)C(=O)N[C@@H](CO)C(=O)O (H-[dY]LPGQYAFS-OH),half-life ([1]; serum): 77 ± 5 min
–,–,–,YFPGHFAFS-NH2,"stability: t1/2 ±SD ([1]; peptide half life in human serum (25% v/v in RPMI, 37°C), HPLC assay, mean of three independent experiments ± SD): 17 ± 4 min"
135 ± 39 min,–,–,CC(C)C[C@H](NC(=O)[C@H](N)Cc1ccc(O)cc1)C(=O)N1CCC[C@H]1C(=O)NCC(=O)N[C@@H](CCC(N)=O)C(=O)N[C@@H](Cc1ccc(O)cc1)C(=O)N[C@@H](C)C(=O)N[C@@H](Cc1ccccc1)C(=O)N[C@@H](Cc1ccccc1)C(=O)O (H-[dY]LPGQYAFF-OH; N-terminus assumed),–
374 min,–,–,C[C@@H](NC(=O)[C@H](Cc1ccccc1)NC(=O)[C@H](Cc1ccccc1)NC(=O)[C@@H](CO)NC(=O)[C@@H]1CCCN1C(=O)[C@@H](Cc1ccc(O)cc1)NC(=O)[C@H](N)Cc1ccc(O)cc1)C(=O)N[C@@H](Cc1ccccc1)C(=O)N1CCC[C@H]1C(=O)O [compound 154] (H-[dY][dY]P[dS]FF[dA]FP-OH; N-terminus assumed),–
–,"1,56 DF/F0",3010 nM,NC(=O)CC[C@H](NC(=O)CNC(=O)[C@@H]1CCCN1C(=O)[C@H](Cc1ccccc1)NC(=O)[C@H](N)Cc1ccccc1)C(=O)N[C@@H](Cc1c[nH]c2ccccc12)C(=O)NCC(=O)N[C@@H](Cc1ccccc1)C(=O)N[C@@H](CO)C(N)=O [compound 12] (H-[dF]FPGQWGFS-NH2; N-terminus assumed),–
–,"1,30 DF/F0",–,YFPGNFAFS-NH2 [compound 6],–
–,–,–,YFPGNFAFS-OH [compound 32],"max response (human CMKLR1): 0,89 DF/F0"
–,"1,59 DF/F0",1770 nM,CC(C)C[C@H](NC(=O)[C@@H](N)Cc1ccccc1)C(=O)N1CCC[C@H]1C(=O)NCC(=O)N[C@@H](CCC(N)=O)C(=O)N[C@@H](Cc1ccccc1)C(=O)N[C@@H](C)C(=O)N[C@@H](Cc1ccccc1)C(=O)N1CCC[C@@H]1C(=O)O [compound 110] (H-FLPGQFAF[dP]-OH; N-terminus assumed),–
–,"1,77 DF/F0",41.3 nM,FLPGQFAFS-NH2 [compound 3],–
–,"1,47 DF/F0",3840 nM,WYPGNFAFS-NH2 [compound 16],–
–,–,–,C[C@H](NC(=O)[C@H](Cc1ccccc1)NC(=O)[C@H](CCC(N)=O)NC(=O)CNC(=O)[C@@H]1CCCN1C(=O)[C@H](CC(=O)O)NC(=O)[C@H](N)Cc1ccc(O)cc1)C(=O)N[C@@H](Cc1ccccc1)C(=O)N[C@H](CO)C(=O)O [compound 112] (H-[dY]DPGQFAF[dS]-OH; N-terminus assumed),"max response (human CMKLR1): 1,12 DF/F0"
–,–,–,CC(C)C[C@@H](NC(=O)[C@H](N)Cc1ccc(O)cc1)C(=O)N1CCC[C@H]1C(=O)NCC(=O)N[C@@H](CCC(N)=O)C(=O)N[C@@H](Cc1ccccc1)C(=O)N[C@@H](C)C(=O)N[C@@H](Cc1ccccc1)C(=O)N[C@H](CO)C(=O)O [compound 98],"max response (human CMKLR1): 1,68 DF/F0"
–,"1,66 DF/F0",–,CC(C)C[C@H](NC(=O)[C@@H](N)Cc1ccc(O)cc1)C(=O)N1CCC[C@H]1C(=O)NCC(=O)N[C@@H](CCC(N)=O)C(=O)N[C@@H](Cc1ccccc1)C(=O)N[C@H](Cc1ccccc1)C(=O)N[C@@H](Cc1ccccc1)C(=O)N[C@@H](CO)C(N)=O [compound 4] (H-YLPGQF[dF]FS-NH2; N-terminus assumed),–
–,"0,44 DF/F0",18600 nM,C[C@H](NC(=O)[C@H](Cc1c[nH]c2ccccc12)NC(=O)[C@H](CCC(N)=O)NC(=O)CNC(=O)[C@@H]1CCCN1C(=O)[C@H](Cc1c[nH]c2ccccc12)NC(=O)[C@@H](N)Cc1ccc(O)cc1)C(=O)N[C@H](Cc1ccccc1)C(=O)N[C@@H](CS)C(N)=O [compound 22] (H-YWPGQWA[dF]C-NH2; N-terminus assumed),–
–,"0,30 DF/F0",16500 nM,C[C@H](N)C(=O)N[C@H](Cc1c[nH]c2ccccc12)C(=O)N1CCC[C@H]1C(=O)NCC(=O)N[C@@H](CCC(N)=O)C(=O)N[C@@H](Cc1ccccc1)C(=O)N[C@@H](C)C(=O)N[C@H](Cc1ccc(O)cc1)C(=O)N[C@@H](CO)C(N)=O [compound 21] (H-A[dW]PGQFA[dY]S-NH2; N-terminus assumed),–
–,–,–,YFPGHFAFS-OH [compound 31],"max response (human CMKLR1): 1,07 DF/F0"
–,"1,47 DF/F0",15.2 nM,YFPGQYAFF-NH2 [compound 1],–
–,"0,64 DF/F0",12900 nM,FYPGQWAYS-NH2 [compound 20],–
–,"0,73 DF/F0",1240 nM,FLPGQFAFK-OH [compound 67],–
–,–,–,CC(C)C[C@H](NC(=O)[C@H](N)Cc1ccc(O)cc1)C(=O)N1CCC[C@H]1C(=O)N[C@H](CO)C(=O)N[C@@H](CCC(N)=O)C(=O)N[C@@H](Cc1ccc(O)cc1)C(=O)N[C@@H](C)C(=O)N[C@@H](Cc1ccccc1)C(=O)N[C@H](Cc1ccccc1)C(=O)O [yLPsQYAFf] (H-[dY]LP[dS]QYAF[dF]-OH; N-terminus assumed),EC50 (human CMKLR1): 0.49 ± 0.13 nM
–,"1,61 DF/F0",1880 nM,YFPGQWAWS-NH2 [compound 9],–

Compound,"half-life at 50 µg/mL ([1]; human serum, 25% (v/v) in RPMI)",max response (human CMKLR1; [3]),EC50 (human CMKLR1; [4]),further results
CC(C)C[C@H](NC(=O)[C@@H](N)Cc1ccc(O)cc1)C(=O)N1CCC[C@H]1C(=O)N[C@H](CO)C(=O)N[C@@H](CCC(N)=O)C(=O)N[C@@H](Cc1ccc(O)cc1)C(=O)N[C@@H](C)C(=O)N[C@@H](Cc1ccccc1)C(=O)N[C@H](Cc1ccccc1)C(=O)O [compound 119] (H-YLP[dS]QYAF[dF]-OH; N-terminus assumed),–,"1,62 DF/F0",–,EC50 (human CMKLR1): 0.31 nM; half-life at 50 µg/mL ([1]; serum): 63 min
YFPGQFAFG-OH,13 ± 1 min,–,–,–
